Experimental data taken from the supplement of paper PMC10307832.

Experiments:
Assay in all cases: relative viability (nuclei count vs DMSO), 5 days (fraction); higher = more cells survive
Afatinib + Bortezomib = compound: CN(C)C/C=C/C(=O)Nc1cc2c(Nc3ccc(F)c(Cl)c3)ncnc2cc1O[C@H]1CCOC1 [Afatinib] + CC(C)C[C@H](NC(=O)[C@H](Cc1ccccc1)NC(=O)c1cnccn1)B(O)O [Bortezomib] (partner 0.002 µM)
Summary of the method: (§1)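 Values are medians from duplicate plates. Each reflects relative viability, defined as the nuclei count of treated wells over that of vehicle wells. Lung cancer cell lines in 1536-well plates were pin-tool dosed one day after seeding with one drug alone or with a fixed anchor-drug dose plus five library-drug doses (not always all listed) in √10 steps, then fixed, stained and imaged at 4× after 5 days.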

Afatinib + Lapatinib = compound: CN(C)C/C=C/C(=O)Nc1cc2c(Nc3ccc(F)c(Cl)c3)ncnc2cc1O[C@H]1CCOC1 [Afatinib] + CS(=O)(=O)CCNCc1ccc(-c2ccc3ncnc(Nc4ccc(OCc5cccc(F)c5)c(Cl)c4)c3c2)o1 [Lapatinib] (partner 2 µM)
Summary of the method: as §1

Afatinib + AZD7762 = compound: CN(C)C/C=C/C(=O)Nc1cc2c(Nc3ccc(F)c(Cl)c3)ncnc2cc1O[C@H]1CCOC1 [Afatinib] + NC(=O)Nc1cc(-c2cccc(F)c2)sc1C(=O)N[C@H]1CCCNC1 [AZD7762] (partner 0.2 µM)
Summary of the method: as §1

Afatinib + Decitabine = compound: CN(C)C/C=C/C(=O)Nc1cc2c(Nc3ccc(F)c(Cl)c3)ncnc2cc1O[C@H]1CCOC1 [Afatinib] + Nc1ncn([C@H]2C[C@H](O)[C@@H](CO)O2)c(=O)n1 [Decitabine] (partner 2 µM)
Summary of the method: as §1

Cell Line | relative viability (Afatinib + Bortezomib; first compound 0.005 µM) | relative viability (Afatinib + Bortezomib; first compound 0.01581 µM) | relative viability (Afatinib + Bortezomib; first compound 0.05 µM) | relative viability (Afatinib + Bortezomib; first compound 0.1581 µM) | relative viability (Afatinib + Bortezomib; first compound 0.5 µM) | relative viability (Afatinib + Lapatinib; first compound 0.005 µM) | relative viability (Afatinib + Lapatinib; first compound 0.01581 µM) | relative viability (Afatinib + Lapatinib; first compound 0.05 µM) | relative viability (Afatinib + Lapatinib; first compound 0.1581 µM) | relative viability (Afatinib + Lapatinib; first compound 0.5 µM) | relative viability (Afatinib + AZD7762; first compound 0.005 µM) | relative viability (Afatinib + AZD7762; first compound 0.01581 µM) | relative viability (Afatinib + AZD7762; first compound 0.05 µM) | relative viability (Afatinib + AZD7762; first compound 0.1581 µM) | relative viability (Afatinib + AZD7762; first compound 0.5 µM) | relative viability (Afatinib + Decitabine; first compound 0.005 µM) | relative viability (Afatinib + Decitabine; first compound 0.01581 µM) | relative viability (Afatinib + Decitabine; first compound 0.05 µM) | relative viability (Afatinib + Decitabine; first compound 0.1581 µM) | relative viability (Afatinib + Decitabine; first compound 0.5 µM)
HCC-78 | 0.528 | 0.514 | 0.566 | 0.362 | 0.434 | 0.838 | 0.661 | 0.844 | 0.659 | 0.883 | 0.693 | 0.542 | 0.509 | 0.478 | 0.449 | 0.726 | 0.607 | 0.616 | 0.635 | 0.651
HCC-366 | 1.1 | 1.07 | 1.08 | 0.972 | 1.06 | 1.03 | 1.06 | 1.03 | 1.05 | 1.02 | 0.194 | 0.285 | 0.259 | 0.337 | 0.264 | 0.293 | 0.407 | 0.383 | 0.324 | 0.34
HCC-827 | 0.704 | 0.25 | 0.299 | 0.316 | 0.342 | 0.0458 | 0.174 | 0.186 | 0.186 | 0.198 | 0.11 | 0.119 | 0.125 | 0.121 | 0.0942 | 0.162 | 0.155 | 0.178 | 0.174 | 0.161
HOP-62 | 0.69 | 0.723 | 0.731 | 0.915 | 0.724 | 1.12 | 1.12 | 1.11 | 1.03 | 1.09 | 0.561 | 0.512 | 0.571 | 0.64 | 0.471 | 0.252 | 0.181 | 0.238 | 0.193 | 0.219
LC-2-ad | 1.01 | 1.03 | 1.06 | 0.991 | 1.19 | 1.07 | 0.991 | 1.07 | 0.961 | 0.925 | 0.782 | 0.713 | 0.559 | 0.411 | 0.46 | 0.769 | 0.866 | 0.786 | 0.694 | 0.767
LCLC-97TM1 | 0.733 | 0.646 | 0.648 | 0.463 | 0.619 | 1.11 | 0.837 | 1.11 | 0.688 | 0.568 | 0.164 | 0.259 | 0.186 | 0.42 | 0.18 | 0.262 | 0.17 | 0.234 | 0.273 | 0.255
LOU-NH91 | 0.465 | 0.416 | 0.48 | 0.519 | 0.502 | 0.76 | 0.754 | 0.806 | 0.736 | 0.683 | 0.707 | 0.704 | 0.76 | 0.679 | 0.637 | 0.617 | 0.672 | 0.699 | 0.643 | 0.697
LU99A | 1.19 | 1.07 | 1.08 | 1.08 | 1.02 | 1.08 | 1.07 | 1.02 | 0.979 | 0.871 | 0.238 | 0.41 | 0.37 | 0.257 | 0.293 | 0.903 | 0.93 | 0.929 | 0.873 | 0.964
LXF-289 | 1.04 | 0.906 | 0.947 | 0.905 | 0.936 | 0.937 | 0.91 | 0.95 | 0.903 | 0.917 | 1.05 | 1.03 | 1.11 | 1.02 | 1.02 | 0.371 | 0.356 | 0.366 | 0.351 | 0.365
NCI-H23 | 0.951 | 0.948 | 0.995 | 0.901 | 0.904 | 1.34 | 1.23 | 1.08 | 1.04 | 1.01 | 0.17 | 0.226 | 0.237 | 0.23 | 0.195 | 0.327 | 0.314 | 0.278 | 0.317 | 0.309
NCI-H322M | 0.721 | 1.03 | 0.663 | 0.563 | 0.512 | 0.554 | 0.547 | 0.499 | 0.57 | 0.465 | 0.433 | 0.407 | 0.389 | 0.402 | 0.348 | 0.637 | 0.509 | 0.55 | 0.502 | 0.479
NCI-H460 | 1.34 | 1.1 | 1.09 | 1.1 | 0.997 | 0.973 | 0.932 | 1.04 | 1.02 | 0.842 | 0.396 | 0.595 | 0.62 | 0.635 | 0.603 | 0.446 | 0.464 | 0.521 | 0.526 | 0.551
NCI-H596 | 1.15 | 1.18 | 1.11 | 0.766 | 1.01 | 1.09 | 1.08 | 1.09 | 1.02 | 1.02 | 1.06 | 1.01 | 1.11 | 1.09 | 0.901 | 1.02 | 0.962 | 1.08 | 1.1 | 1.01
NCI-H647 | 0.921 | 0.808 | 1.08 | 1.11 | 1 | 1.09 | 0.948 | 1.16 | 1.24 | 1.2 | 0.32 | 0.426 | 0.403 | 0.525 | 0.466 | 0.459 | 0.499 | 0.425 | 0.315 | 0.419
NCI-H650 | 1.07 | 0.802 | 0.957 | 0.949 | 0.597 | 1.01 | 0.844 | 1.19 | 1.21 | 0.684 | 0.832 | 0.886 | 1.03 | 1.04 | 0.904 | 0.321 | 0.323 | 0.334 | 0.334 | 0.308
NCI-H727 | 0.85 | 0.732 | 0.825 | 0.863 | 0.804 | 0.892 | 0.861 | 0.894 | 0.639 | 0.948 | 0.574 | 0.467 | 0.527 | 0.515 | 0.543 | 0.826 | 0.534 | 0.831 | 0.761 | 0.829
